{"source": "ChEMBL document CHEMBL5465560", "about": "“Selectivity Literature for EUbOPEN Chemogenomic Library” (2024)", "key": {"[1]": {"target": "Phosphatidylinositol 4-phosphate 5-kinase type-1 gamma (Homo sapiens) (UniProt O60331)", "sequence (O60331 whole entry)": "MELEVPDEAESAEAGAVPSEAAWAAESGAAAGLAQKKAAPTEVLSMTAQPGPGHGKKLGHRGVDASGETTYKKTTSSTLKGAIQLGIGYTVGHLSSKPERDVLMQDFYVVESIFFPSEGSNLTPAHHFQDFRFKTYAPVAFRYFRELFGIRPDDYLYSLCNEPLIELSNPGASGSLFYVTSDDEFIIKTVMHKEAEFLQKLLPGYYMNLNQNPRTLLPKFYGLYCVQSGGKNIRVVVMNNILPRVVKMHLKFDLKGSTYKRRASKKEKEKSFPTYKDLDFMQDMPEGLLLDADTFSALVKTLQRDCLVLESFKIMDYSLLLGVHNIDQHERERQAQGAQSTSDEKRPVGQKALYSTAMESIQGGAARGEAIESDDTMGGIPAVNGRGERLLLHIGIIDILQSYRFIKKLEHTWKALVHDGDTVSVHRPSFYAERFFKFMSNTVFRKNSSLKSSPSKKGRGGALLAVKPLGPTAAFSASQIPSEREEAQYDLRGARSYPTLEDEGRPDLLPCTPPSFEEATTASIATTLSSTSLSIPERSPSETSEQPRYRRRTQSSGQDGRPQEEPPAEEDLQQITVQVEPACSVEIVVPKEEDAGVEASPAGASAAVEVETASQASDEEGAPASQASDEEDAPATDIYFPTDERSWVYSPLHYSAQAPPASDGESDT", "test": "Selectivity interaction (KinomeScan (DiscoverX)) EUB0001049a PIP5K1C", "conditions": "at 1 µM"}, "[2]": {"target": "T1, Cyclin-dependent kinase-like 2 (Homo sapiens) (UniProt Q92772)", "T1 sequence (whole entry)": "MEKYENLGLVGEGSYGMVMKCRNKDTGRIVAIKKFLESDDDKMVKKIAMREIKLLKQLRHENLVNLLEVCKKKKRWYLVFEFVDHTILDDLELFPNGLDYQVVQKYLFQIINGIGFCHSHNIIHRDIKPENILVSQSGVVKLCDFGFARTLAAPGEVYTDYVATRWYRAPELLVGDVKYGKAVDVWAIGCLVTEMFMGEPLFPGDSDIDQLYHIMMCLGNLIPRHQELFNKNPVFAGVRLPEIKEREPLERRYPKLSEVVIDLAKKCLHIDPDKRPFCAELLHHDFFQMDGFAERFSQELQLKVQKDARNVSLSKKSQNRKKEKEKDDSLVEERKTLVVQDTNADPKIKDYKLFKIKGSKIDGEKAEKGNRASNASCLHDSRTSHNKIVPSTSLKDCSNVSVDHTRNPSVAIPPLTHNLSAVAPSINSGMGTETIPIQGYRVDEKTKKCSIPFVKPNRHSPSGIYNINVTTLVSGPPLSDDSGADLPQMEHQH", "test": "Selectivity interaction (KinomeScan (DiscoverX)) EUB0001079a CDKL2", "conditions": "at 1 µM"}, "[3]": {"target": "Cyclin-dependent kinase 3 (Homo sapiens) (UniProt Q00526)", "sequence (Q00526 whole entry, looked up)": "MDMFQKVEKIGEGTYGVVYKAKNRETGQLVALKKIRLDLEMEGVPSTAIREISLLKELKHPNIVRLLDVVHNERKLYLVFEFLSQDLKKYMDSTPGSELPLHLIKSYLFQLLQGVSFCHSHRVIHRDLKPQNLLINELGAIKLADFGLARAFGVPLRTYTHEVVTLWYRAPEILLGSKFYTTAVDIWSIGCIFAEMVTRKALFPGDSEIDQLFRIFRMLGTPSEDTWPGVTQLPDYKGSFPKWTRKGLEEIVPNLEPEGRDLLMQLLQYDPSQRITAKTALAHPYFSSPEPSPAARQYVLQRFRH", "conditions": "at 10 µM"}, "[4]": {"target": "T2, Histone-lysine N-methyltransferase NSD3 (Homo sapiens) (UniProt Q9BZ95)", "T2 sequence (whole entry)": "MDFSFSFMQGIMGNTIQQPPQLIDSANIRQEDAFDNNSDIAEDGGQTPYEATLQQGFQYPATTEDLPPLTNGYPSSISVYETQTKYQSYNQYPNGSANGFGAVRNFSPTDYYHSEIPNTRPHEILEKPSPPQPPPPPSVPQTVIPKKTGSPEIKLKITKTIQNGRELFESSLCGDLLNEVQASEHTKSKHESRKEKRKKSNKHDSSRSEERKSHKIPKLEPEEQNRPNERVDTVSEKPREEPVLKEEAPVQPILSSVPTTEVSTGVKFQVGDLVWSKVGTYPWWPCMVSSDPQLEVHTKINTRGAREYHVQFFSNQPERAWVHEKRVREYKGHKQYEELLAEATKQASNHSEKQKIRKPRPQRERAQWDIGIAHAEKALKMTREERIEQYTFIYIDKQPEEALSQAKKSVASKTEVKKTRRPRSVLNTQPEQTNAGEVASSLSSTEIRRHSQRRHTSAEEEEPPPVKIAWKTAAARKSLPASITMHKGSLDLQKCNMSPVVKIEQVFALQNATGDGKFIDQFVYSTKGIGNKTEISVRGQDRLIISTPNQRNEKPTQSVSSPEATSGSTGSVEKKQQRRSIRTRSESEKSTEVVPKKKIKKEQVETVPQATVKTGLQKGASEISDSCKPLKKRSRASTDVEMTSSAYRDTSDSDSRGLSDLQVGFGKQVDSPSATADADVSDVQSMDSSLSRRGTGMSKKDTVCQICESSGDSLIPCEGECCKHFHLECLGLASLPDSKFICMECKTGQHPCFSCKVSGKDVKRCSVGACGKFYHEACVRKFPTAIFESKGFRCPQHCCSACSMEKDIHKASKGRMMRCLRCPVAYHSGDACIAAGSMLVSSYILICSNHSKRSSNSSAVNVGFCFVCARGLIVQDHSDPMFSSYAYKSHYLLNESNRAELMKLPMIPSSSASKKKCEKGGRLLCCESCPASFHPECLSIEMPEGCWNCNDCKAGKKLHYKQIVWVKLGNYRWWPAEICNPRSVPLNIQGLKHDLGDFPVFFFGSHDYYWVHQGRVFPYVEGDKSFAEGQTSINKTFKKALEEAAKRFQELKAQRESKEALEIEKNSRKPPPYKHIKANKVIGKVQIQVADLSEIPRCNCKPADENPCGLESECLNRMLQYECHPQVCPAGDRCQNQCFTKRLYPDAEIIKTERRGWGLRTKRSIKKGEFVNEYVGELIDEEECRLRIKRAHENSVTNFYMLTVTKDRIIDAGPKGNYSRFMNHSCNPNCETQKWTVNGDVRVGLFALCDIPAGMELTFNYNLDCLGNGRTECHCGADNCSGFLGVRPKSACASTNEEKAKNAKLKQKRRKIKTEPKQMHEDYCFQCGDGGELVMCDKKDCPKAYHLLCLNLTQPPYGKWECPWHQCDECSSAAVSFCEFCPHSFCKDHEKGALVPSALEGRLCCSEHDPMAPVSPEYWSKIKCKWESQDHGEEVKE", "test": "Selectivity interaction (PWWP, WD40, and Tudor domain panel (DSLS measurements, literature)) EUB0000270b NSD3"}, "[5]": {"target": "Insulin receptor (Homo sapiens, UniProt P06213)", "sequence (P06213 28-758 limits assumed)": "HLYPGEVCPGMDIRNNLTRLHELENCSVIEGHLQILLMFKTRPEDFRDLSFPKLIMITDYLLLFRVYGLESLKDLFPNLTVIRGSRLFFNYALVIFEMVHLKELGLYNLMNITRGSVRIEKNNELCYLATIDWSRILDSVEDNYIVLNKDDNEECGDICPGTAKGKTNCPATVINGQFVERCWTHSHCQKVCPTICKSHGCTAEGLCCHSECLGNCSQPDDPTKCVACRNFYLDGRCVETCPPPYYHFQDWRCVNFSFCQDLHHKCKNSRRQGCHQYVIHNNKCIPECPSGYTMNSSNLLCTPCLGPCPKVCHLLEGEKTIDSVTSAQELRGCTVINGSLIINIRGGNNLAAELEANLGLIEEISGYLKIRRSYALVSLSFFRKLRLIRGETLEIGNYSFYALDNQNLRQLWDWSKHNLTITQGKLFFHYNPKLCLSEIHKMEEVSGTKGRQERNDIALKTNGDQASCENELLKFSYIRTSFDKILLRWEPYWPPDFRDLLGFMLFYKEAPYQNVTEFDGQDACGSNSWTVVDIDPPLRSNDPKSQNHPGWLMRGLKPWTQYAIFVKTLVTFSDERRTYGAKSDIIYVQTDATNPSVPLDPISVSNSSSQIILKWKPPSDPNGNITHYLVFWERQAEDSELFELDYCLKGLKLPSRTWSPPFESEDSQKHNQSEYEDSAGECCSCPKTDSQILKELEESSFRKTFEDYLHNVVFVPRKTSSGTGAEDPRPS", "sequence (P06213 763-1382 limits assumed)": "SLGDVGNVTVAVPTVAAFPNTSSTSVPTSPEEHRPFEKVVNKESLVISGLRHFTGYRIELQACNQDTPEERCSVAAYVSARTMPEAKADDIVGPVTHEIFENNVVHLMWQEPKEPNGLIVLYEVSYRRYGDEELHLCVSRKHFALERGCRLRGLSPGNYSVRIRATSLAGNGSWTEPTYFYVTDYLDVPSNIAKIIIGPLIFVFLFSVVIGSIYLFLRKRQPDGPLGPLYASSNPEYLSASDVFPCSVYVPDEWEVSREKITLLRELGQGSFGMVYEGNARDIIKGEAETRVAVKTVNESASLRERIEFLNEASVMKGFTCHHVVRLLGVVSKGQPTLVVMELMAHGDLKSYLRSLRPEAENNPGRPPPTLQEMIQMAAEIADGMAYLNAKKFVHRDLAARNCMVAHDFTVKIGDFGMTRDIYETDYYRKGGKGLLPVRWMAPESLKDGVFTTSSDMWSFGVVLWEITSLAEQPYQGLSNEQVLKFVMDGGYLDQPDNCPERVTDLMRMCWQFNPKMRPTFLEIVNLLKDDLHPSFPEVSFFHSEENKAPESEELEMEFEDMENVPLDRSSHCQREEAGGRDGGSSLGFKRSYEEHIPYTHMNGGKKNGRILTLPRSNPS", "test": "Selectivity interaction (Kinase panel (enzymatic assay)) EUB0000595a INSR"}, "[6]": {"target": "T3, Dual specificity protein kinase TTK (Homo sapiens) (UniProt P33981)", "T3 sequence (whole entry)": "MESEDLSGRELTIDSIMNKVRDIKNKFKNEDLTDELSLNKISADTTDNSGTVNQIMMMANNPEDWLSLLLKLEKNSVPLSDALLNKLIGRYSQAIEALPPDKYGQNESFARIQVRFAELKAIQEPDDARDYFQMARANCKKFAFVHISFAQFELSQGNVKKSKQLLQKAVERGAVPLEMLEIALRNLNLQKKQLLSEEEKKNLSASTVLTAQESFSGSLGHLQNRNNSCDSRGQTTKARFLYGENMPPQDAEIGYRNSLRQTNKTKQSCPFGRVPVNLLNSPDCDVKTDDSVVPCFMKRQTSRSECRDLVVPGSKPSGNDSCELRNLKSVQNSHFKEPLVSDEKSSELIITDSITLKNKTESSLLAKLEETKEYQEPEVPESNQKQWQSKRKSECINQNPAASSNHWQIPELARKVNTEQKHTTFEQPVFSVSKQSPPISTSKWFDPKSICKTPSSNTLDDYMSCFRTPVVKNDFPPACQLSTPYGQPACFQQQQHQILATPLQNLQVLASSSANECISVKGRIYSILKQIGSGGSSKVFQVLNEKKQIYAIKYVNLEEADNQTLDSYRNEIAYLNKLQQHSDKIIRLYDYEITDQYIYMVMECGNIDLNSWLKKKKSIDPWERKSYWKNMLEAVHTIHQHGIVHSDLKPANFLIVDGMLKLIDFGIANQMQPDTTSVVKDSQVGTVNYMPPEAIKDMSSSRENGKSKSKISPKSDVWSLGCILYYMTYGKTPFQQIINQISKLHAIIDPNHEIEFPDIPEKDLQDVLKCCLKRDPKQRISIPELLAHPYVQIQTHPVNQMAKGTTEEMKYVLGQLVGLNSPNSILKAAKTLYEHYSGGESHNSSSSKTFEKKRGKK", "test": "Selectivity interaction (ProQinase) EUB0000171b TTK"}}}
{"smiles": "COc1cc(Nc2nc(C)cc(-c3cnn4nc(OC)ccc34)n2)cc(C(F)(F)F)c1", "values": [{"measurement": "% of control", "setting": "[1]", "result": 94, "unit": "%"}]}
{"smiles": "Nc1cnc(N2CCc3cc(S(=O)(=O)Nc4c(F)cc(Cl)cc4F)cc(N4CCCC4=O)c32)nc1", "note": "[TP-020n]", "values": [{"measurement": "% of control", "setting": "[2]", "result": 85, "unit": "%"}]}
{"smiles": "CCN(CC)CCCCNc1ncc2cc(-c3cc(OC)cc(OC)c3)c(NC(=O)NC(C)(C)C)nc2n1", "values": [{"measurement": "% of control", "setting": "[3]", "result": 100, "unit": "%"}]}
{"smiles": "Cc1cc(CN)cc(C)c1-c1ncn(C)c1-c1cncn1C", "values": [{"measurement": "dTagg", "setting": "[4]", "result": 0.7, "unit": "K"}]}
{"smiles": "COCC(=O)NC/C=C/c1ccc2ncnc(Nc3ccc(Oc4ccc(C)nc4)c(C)c3)c2c1", "note": "[CP-724714]", "values": [{"measurement": "IC50", "setting": "[5]", "result": "> 10", "unit": "µM"}]}
{"smiles": "C=CC(=O)Nc1cccc(C(=O)Nc2ccc(Nc3cc(-c4[nH]c(SC)nc4C)ccn3)cc2)c1", "values": [{"measurement": "% of control", "setting": "[6]; at 1 µM", "result": 72, "unit": "%"}, {"measurement": "% of control", "setting": "[6]; at 5 µM", "result": 34, "unit": "%"}]}
